Data published in US11613525B2 (CTXT PTY LIMITED, priority 2018, dated 2023).
Where two headings read alike, the source gives them in different places.

Tests used:
[1] = biological target: huSTING (HAQ) (Homo sapiens (Human), UniProt Q86WV6, G230A/H232R/R293Q/R71H); assay: THP-1 reporter cell line assay, THP-1 STING Lucia ISG cells; type: cell-based
[2] = biological target: T1, human STING (HAQ) (Homo sapiens, UniProt Q86WV6, G230A/H232R/R293Q); assay: biochemical; type: binding; details: for ΔTm at 100 µM: read-out: DSF huSTING (HAQ) ΔTm (° C.)
T1 sequence (Q86WV6 whole entry G230A/H232R/R293Q, looked up): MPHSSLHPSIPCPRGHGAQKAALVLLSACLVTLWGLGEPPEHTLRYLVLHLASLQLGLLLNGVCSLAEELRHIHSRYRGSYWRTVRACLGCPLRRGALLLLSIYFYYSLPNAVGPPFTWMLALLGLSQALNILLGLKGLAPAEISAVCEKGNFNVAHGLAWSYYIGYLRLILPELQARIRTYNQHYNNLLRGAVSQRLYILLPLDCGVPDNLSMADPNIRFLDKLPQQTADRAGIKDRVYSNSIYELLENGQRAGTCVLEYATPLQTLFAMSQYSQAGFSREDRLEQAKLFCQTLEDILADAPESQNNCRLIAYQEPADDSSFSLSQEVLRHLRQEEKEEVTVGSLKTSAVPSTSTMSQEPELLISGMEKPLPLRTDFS
Procedure: (§1) DSF monitors thermal unfolding of protein in the presence of a fluorescent dye and is typically performed using a real-time PCR instrument. The temperature at which a protein unfolds is measured by an increase in the fluorescence of a dye with affinity for hydrophobic parts of the protein that are gradually exposed during unfolding. The fluorescence of the dye is quenched in aqueous environments, but when the dye associates with hydrophobic sites on the unfolded protein, its fluorescence increases. The fluorescence intensity is plotted as a function of the temperature, generating a sigmoidal curve that can be described by a two-state transition. The inflection point of the transition curve (Tm) is calculated using simple equations such as that of Boltzman.
(§2) Sealed plates were then placed into a Bio-Rad CFX96/C1000 thermocycler and FRET scanning mode (λ^excitation of 490 nm and reads at λ^emission of 570 nm) was used to measure fluorescence intensity. […] The melting point (Tm) obtained for STING protein alone was subtracted from Tm obtained for protein incubated with ligand to generate ΔTm values listed in the table below.
(§3) These additional compounds were tested as described above, however the protein concentration was 2 μM.

[3] = biological target: T1, human STING (HAQ); details: read-out: SPR (HAQ) KD; 25° C.
[4] = biological target: T2, huSTING (WT) (Homo sapiens (Human), UniProt Q86WV6, H232R); assay: THP-1 reporter cell line assay, THP-1-Dual KI-hSTING-R232 cells; type: cell-based
Target sequence in this assay (Q86WV6 whole entry H232R): as the sequence (Q86WV6 whole entry G230A/H232R/R293Q, looked up) above, with A230G, Q293R counted along it

[5] = biological target: T2, huSTING (WT); assay: Differential scanning fluorimetry (DSF), huSTING (WT); type: binding; details: for ΔTm at 100 µM: read-out: DSF huSTING (WT) ΔTm (° C.)
Procedure: as §1, §2, §3
Target sequence in this assay (Q86WV6 other isoform, or with tags, fused parts or gaps, stated change not applied): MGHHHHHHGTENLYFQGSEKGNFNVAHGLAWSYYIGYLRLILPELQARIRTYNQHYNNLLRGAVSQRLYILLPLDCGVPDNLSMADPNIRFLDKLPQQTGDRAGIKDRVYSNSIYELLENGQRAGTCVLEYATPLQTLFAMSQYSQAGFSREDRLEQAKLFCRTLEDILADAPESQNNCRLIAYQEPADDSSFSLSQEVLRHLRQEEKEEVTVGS

[6] = THP-1 STING Lucia ISG cells, 24 h, top concentration 50 μM, read-out: Cellular EC50 huSTING (HAQ)
[7] = 1 μM protein, compound at 100 μM
[8] = read-out: Cellular EC50 huSTING (WT)
[9] = THP-1 STING Lucia ISG cells, modified method, top concentration 40 μM, pin tool, EnVision, read-out: Cellular EC50 huSTING (HAQ)
[10] = compound 100 μM, protein concentration 2 μM

huSTING (HAQ), sequence (Q86WV6 whole entry R71H/G230A/H232R/R293Q): as the sequence (Q86WV6 whole entry G230A/H232R/R293Q, looked up) above, with R71H counted along it

Structure (SMILES)	EC50 [1, 6] [µM]	EC50 [4, 8] [µM]	ΔTm at 100 µM [2] [°C]	ΔTm at 100 µM [5, 7] [°C]	also measured
NC(=O)c1ccc(OCc2c(C(=O)OCc3ccccc3)sc3cccc(F)c23)cc1 [Example 3, Benzyl 3-((4-carbamoylphenoxy)methyl)-4-fluorobenzo[b]thiophene-2-carboxylate]	2.94	> 50			DSF huSTING (HAQ) ΔTm (° C.) [2, 7]: −0.47 °C; Kd [3]: 3500 µM
CCOC(=O)c1sc2ccccc2c1COc1ccc(C(N)=O)cc1 [Example 5, Ethyl 3-((4-carbamoylphenoxy)methyl)benzo[b]thiophene-2-carboxylate]	8.22	> 50	-0.48	0.07	
CCOC(=O)c1sc2cc(Cl)ccc2c1COc1ccc(C(N)=O)cc1 [Example 9, Ethyl 3-((4-carbamoylphenoxy)methyl)-6-chlorobenzo[b]thiophene-2-carboxylate]	> 50	> 50	0.71	0.51	
CCOC(=O)c1sc2c(Cl)cccc2c1COc1ccc(C(N)=O)cc1 [Example 11, Ethyl 3-((4-carbamoylphenoxy)methyl)-7-chlorobenzo[b]thiophene-2-carboxylate]	16.2	25.6	0.29	0.13	
CCOC(=O)c1sc2ccc(Cl)cc2c1COc1ccc(C(N)=O)cc1 [Example 13, Ethyl 3-((4-carbamoylphenoxy)methyl)-5-chlorobenzo[b]thiophene-2-carboxylate]	> 50	> 50	-0.15	-0.59	
COc1cc(C(N)=O)cc(OC)c1OCc1c(C(=O)O)sc2cccc(Cl)c12 [Example 42, 3-((4-Carbamoyl-2,6-dimethoxyphenoxy)methyl)-4-chlorobenzo[b]thiophene-2-carboxylic acid]					DSF huSTING (HAQ) ΔTm (° C.) [2, 7]: 2.83 °C; Kd [3]: 80.5 µM; ΔTm at 100 µM [5]: -0.64 °C
CCOC(=O)c1sc2cccc(F)c2c1COc1ccc(C(N)=O)cc1F [Example 58, Ethyl 3-((4-carbamoyl-2-fluorophenoxy)methyl)-4-fluorobenzo[b]thiophene-2-carboxylate]	9.19	27.7	0.43		Kd [3]: > 10000 µM
NC(=O)c1ccc(OCc2c(C(=O)O)sc3cccc(Cl)c23)c(F)c1F [Example 67, 3-((4-Carbamoyl-2,3-difluorophenoxy)methyl)-4-chlorobenzo[b]thiophene-2-carboxylic acid]	> 50	> 50	11.1	3.04	
NC(=O)c1cc(F)c(OCc2c(C(=O)O)sc3cccc(Cl)c23)c(F)c1 [Example 69, 3-((4-Carbamoyl-2,6-difluorophenoxy)methyl)-4-chlorobenzo[b]thiophene-2-carboxylic acid]					DSF huSTING (HAQ) ΔTm (° C.) [2, 7]: 22.08 °C; ΔTm at 100 µM [5]: 9.49 °C
NC(=O)c1ccc(NCc2c(C(=O)O)sc3cccc(Cl)c23)cc1 [Example 76, 3-(((4-Carbamoylphenyl)amino)methyl)-4-chlorobenzo[b]thiophene-2-carboxylic acid]	2.68	0.217	2.43	-2.72	
Cc1cccc2sc(C(=O)O)c(COc3ccc(C(N)=O)cc3)c12 [Example 78, 3-((4-Carbamoylphenoxy)methyl)-4-methylbenzo[b]thiophene-2-carboxylic acid]	> 50	> 50	16	6.62	
NC(=O)c1cc(F)c(OCc2c(C(=O)O)sc3c(F)ccc(F)c23)c(F)c1 [Example 80, 3-((4-Carbamoyl-2,6-difluorophenoxy)methyl)-4,7-difluorobenzo[b]thiophene-2-carboxylic acid]	38.6	> 50	14.9	6.69	
NC(=O)c1ccc(OCc2c(C(=O)O)sc3c(F)ccc(F)c23)cc1 [Example 82, 3-((4-Carbamoylphenoxy)methyl)-4,7-difluorobenzo[b]thiophene-2-carboxylic acid]	> 50	> 50	9.29	3.15	
NC(=O)c1ccc(OCc2c(C(=O)O)sc3ccc(F)c(Cl)c23)cc1 [Example 84, 3-((4-Carbamoylphenoxy)methyl)-4-chloro-5-fluorobenzo[b]thiophene-2-carboxylic acid]	> 50	> 50	6.48	0.18	
NC(=O)c1cc(F)c(OCc2c(C(=O)O)sc3ccc(F)c(Cl)c23)c(F)c1 [Example 86, 3-((4-Carbamoyl-2,6-difluorophenoxy)methyl)-4-chloro-5-fluorobenzo[b]thiophene-2-carboxylic acid]	> 50	> 50	10.1	3.33	
CCOC(=O)c1sc2cccc(F)c2c1CCc1ccc(C(N)=O)cc1 [Example 87, Ethyl 3-(4-carbamoylphenethyl)-4-fluorobenzo[b]thiophene-2-carboxylate]	> 50	> 50			DSF huSTING (HAQ) ΔTm (° C.) [2, 7]: 0.54 °C; Kd [3]: 3000 µM
CN(C)C(=O)COC(=O)c1sc2cccc(Cl)c2c1COc1c(F)cc(C(N)=O)cc1F [Example 127, 2-(Dimethylamino)-2-oxoethyl 3-((4-carbamoyl-2,6-difluorophenoxy)methyl)-4-chlorobenzo[b]thiophene-2-carboxylate]		0.229			EC50 [1, 9]: 0.026 µM; DSF huSTING (WT) ΔTm (° C.) [5, 10]: −2.44 °C
CCOP(=O)(COC(=O)c1sc2cccc(Cl)c2c1COc1c(F)cc(C(N)=O)cc1F)OCC [Example 143, (Diethoxyphosphoryl)methyl 3-((4-carbamoyl-2,6-difluorophenoxy)methyl)-4-chlorobenzo[b]thiophene-2-carboxylate]					EC50 [1]: 0.018 µM; DSF huSTING (HAQ) ΔTm (° C.) [2]: −2.10 °C; DSF huSTING (WT) ΔTm (° C.) [5]: −1.93 °C; EC50 [4]: 0.381 µM
NC(=O)CNC(=O)c1sc2cccc(Cl)c2c1COc1c(F)cc(C(N)=O)cc1F [Example 148, N-(2-Amino-2-oxoethyl)-3-((4-carbamoyl-2,6-difluorophenoxy)methyl)-4-chlorobenzo[b]thiophene-2-carboxamide]		> 40			EC50 [1, 9]: 4.07 µM; DSF huSTING (WT) ΔTm (° C.) [5, 10]: −0.37 °C
COCCOC(=O)c1sc2cccc(Cl)c2c1COc1c(F)cc(C(N)=O)cc1F [Example 158, 2-Methoxyethyl 3-((4-carbamoyl-2,6-difluorophenoxy)methyl)-4-chlorobenzo[b]thiophene-2-carboxylate]					EC50 [1]: 0.132 µM; DSF huSTING (HAQ) ΔTm (° C.) [2]: −1.58 °C; DSF huSTING (WT) ΔTm (° C.) [5]: −1.90 °C; EC50 [4]: 0.949 µM
CC(=O)NCCOC(=O)c1sc2cccc(Cl)c2c1COc1c(F)cc(C(N)=O)cc1F [Example 159, 2-Acetamidoethyl 3-((4-carbamoyl-2,6-difluorophenoxy)methyl)-4-chlorobenzo[b]thiophene-2-carboxylate]		0.325			EC50 [1, 9]: 0.044 µM; DSF huSTING (WT) ΔTm (° C.) [5, 10]: −1.02 °C
COC(=O)NCCOC(=O)c1sc2cccc(Cl)c2c1COc1c(F)cc(C(N)=O)cc1F [Example 160, 2-((Methoxycarbonyl)amino)ethyl 3-((4-carbamoyl-2,6-difluorophenoxy)methyl)-4-chlorobenzo[b]thiophene-2-carboxylate]		0.298			EC50 [1, 9]: 0.035 µM; DSF huSTING (WT) ΔTm (° C.) [5, 10]: −1.05 °C
COC(=O)N(C)CCOC(=O)c1sc2cccc(Cl)c2c1COc1c(F)cc(C(N)=O)cc1F [Example 161, 2-((Methoxycarbonyl)(methyl)amino)ethyl 3-((4-carbamoyl-2,6-difluorophenoxy)methyl)-4-chlorobenzo[b]thiophene-2-carboxylate]		0.669			EC50 [1, 9]: 0.062 µM; DSF huSTING (WT) ΔTm (° C.) [5, 10]: −1.76 °C
COCCCOC(=O)c1sc2cccc(Cl)c2c1COc1c(F)cc(C(N)=O)cc1F [Example 162, 3-Methoxypropyl 3-((4-carbamoyl-2,6-difluorophenoxy)methyl)-4-chlorobenzo[b]thiophene-2-carboxylate]		0.302			EC50 [1, 9]: 0.041 µM; DSF huSTING (WT) ΔTm (° C.) [5, 10]: −1.01 °C
NC(=O)c1ccc(OCc2c(C(=O)NCCc3ccccc3)sc3cccc(Br)c23)cc1 [Example 167, 4-Bromo-3-((4-carbamoylphenoxy)methyl)-N-phenethylbenzo[b]thiophene-2-carboxamide]		25.6			EC50 [1, 9]: 23.2 µM; DSF huSTING (WT) ΔTm (° C.) [5, 10]: 2.51 °C
